Measurements taken from ChEMBL document CHEMBL3856182, “How much successful are the medicinal chemists in modulation of SIRT1: A critical review” (Eur J Med Chem, 2016).
Blank lines part the entries; values can stand above or below the compound they belong to.

Assays:
[1] = Oral bioavailability in human at 50 uCi up to 12 hrs using 14C-labeled compound by scintillation counting method; format: ADME, organism-based; conditions: in vivo
[2] = Oral bioavailability in rat at 50 or 150 mg/kg/day administered through gavage for 14 consecutive days by HPLC analysis; format: ADME, organism-based; conditions: in vivo
[3] = Drug absorption in human at 50 uCi, po up to 12 hrs using 14C-labeled compound by scintillation counting method; format: ADME, organism-based; conditions: in vivo
[4] = target: T1, NAD-dependent protein deacetylase sirtuin-1 (Homo sapiens) (UniProt Q96EB6); assay: Activation of recombinant human SIRT1 using TPE-GK(Ac)YDD as substrate at 50 uM by fluorescence assay relative to control
T1 sequence (whole entry): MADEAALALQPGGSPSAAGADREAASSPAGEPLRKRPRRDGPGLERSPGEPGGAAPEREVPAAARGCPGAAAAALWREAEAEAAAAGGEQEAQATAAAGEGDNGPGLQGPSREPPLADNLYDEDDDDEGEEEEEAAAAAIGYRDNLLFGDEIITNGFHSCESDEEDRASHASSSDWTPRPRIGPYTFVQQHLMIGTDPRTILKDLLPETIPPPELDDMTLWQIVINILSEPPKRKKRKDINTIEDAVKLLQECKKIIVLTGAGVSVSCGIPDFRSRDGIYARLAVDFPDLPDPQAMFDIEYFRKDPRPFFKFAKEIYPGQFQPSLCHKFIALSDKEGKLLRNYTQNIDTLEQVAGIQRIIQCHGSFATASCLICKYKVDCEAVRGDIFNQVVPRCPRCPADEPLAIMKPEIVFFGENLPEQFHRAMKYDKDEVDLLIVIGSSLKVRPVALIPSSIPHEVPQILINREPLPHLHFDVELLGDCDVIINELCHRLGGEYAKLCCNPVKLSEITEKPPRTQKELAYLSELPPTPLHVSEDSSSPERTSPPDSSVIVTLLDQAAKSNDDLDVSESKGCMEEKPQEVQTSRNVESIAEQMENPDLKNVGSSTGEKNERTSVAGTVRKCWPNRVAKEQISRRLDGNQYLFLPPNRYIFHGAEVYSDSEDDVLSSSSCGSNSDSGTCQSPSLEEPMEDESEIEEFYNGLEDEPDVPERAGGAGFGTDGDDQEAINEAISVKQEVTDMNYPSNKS

[5] = target: T2, NAD-dependent protein deacetylase sirtuin-1 (Homo sapiens, UniProt Q96EB6); assay: Activation of recombinant human SIRT1 assessed as increase in deacetylation of Fluor de Lys-SIRT1-specific substrate after 2 hrs by HTS assay
T2 sequence (Q96EB6 whole entry): T1 sequence (whole entry)

[6] = target: T2, NAD-dependent protein deacetylase sirtuin-1; assay: Inhibition of recombinant human SIRT1 assessed as deacetylation activity using fluorescent substrate in presence of NAD+ by fluorescence analysis
[7] = target: T3, NAD-dependent protein deacetylase sirtuin-2 (Homo sapiens, UniProt Q8IXJ6); assay: Competitive inhibition of human SIRT2 assessed as deacetylation activity using fluorescent peptide substrate in presence of NAD+ by Lineweaver-Burk plot analysis
T3 sequence (Q8IXJ6 whole entry): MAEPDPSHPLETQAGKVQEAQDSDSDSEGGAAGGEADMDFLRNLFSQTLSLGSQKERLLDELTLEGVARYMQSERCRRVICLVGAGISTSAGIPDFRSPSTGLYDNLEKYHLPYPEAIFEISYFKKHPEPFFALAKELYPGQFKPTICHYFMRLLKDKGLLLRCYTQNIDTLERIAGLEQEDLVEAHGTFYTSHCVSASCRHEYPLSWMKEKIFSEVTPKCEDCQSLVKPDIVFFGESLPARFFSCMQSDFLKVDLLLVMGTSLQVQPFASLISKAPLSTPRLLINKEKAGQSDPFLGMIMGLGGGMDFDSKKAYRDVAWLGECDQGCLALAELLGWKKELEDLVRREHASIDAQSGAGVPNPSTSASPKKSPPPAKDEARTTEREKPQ

[8] = target: T3, NAD-dependent protein deacetylase sirtuin-2; assay: Inhibition of recombinant human SIRT2 assessed as deacetylation activity using fluorescent substrate in presence of NAD+ by fluorescence analysis
[9] = target: T3, NAD-dependent protein deacetylase sirtuin-2; assay: Noncompetitive inhibition of human SIRT2 assessed as deacetylation activity using fluorescent substrate in presence of NAD+ by Lineweaver-Burk plot analysis
[10] = target: T3, NAD-dependent protein deacetylase sirtuin-2; assay: Inhibition of full-length human N-terminal His6-tagged SIRT2 expressed in Escherichia coli BL21 (DE3) assessed as inhibition of deacetylase activity using ZMAL as substrate measured after 4 hrs by Fluor de Lys assay
Saccharomyces cerevisiae = assay: Growth inhibition of yeast
[11] = target: T2, NAD-dependent protein deacetylase sirtuin-1; assay: Inhibition of SIRT1 (unknown origin) using acetylated lysine as substrate by Fluor de Lys assay
[12] = target: T1, NAD-dependent protein deacetylase sirtuin-1 (Homo sapiens); assay: Activation of recombinant human SIRT1 using TPE-GK(Ac)YDD as substrate at 1 to 50 uM by fluorescence assay relative to control
[13] = target: T3, NAD-dependent protein deacetylase sirtuin-2; assay: Inhibition of human SIRT2 using biotin labeled histone H4 peptide with an acetylated lysine 4 as substrate measured after 1 hr by luminescence analysis
[14] = target: T2, NAD-dependent protein deacetylase sirtuin-1; assay: Inhibition of human SIRT1 using biotinylated peptide with an acetylated FLAG sequence as substrate measured after 3 hr in presence of NAD+ by TR-FRET assay
[15] = target: T2, NAD-dependent protein deacetylase sirtuin-1; assay: Inhibition of full-length human N-terminal GST-tagged SIRT1 expressed in Escherichia coli BL21 (DE3) assessed as inhibition of deacetylase activity using ZMAL as substrate measured after 4 hrs by Fluor de Lys assay
[16] = Cytotoxicity in human LNCAP cells assessed as growth inhibition measured after 48 hrs by MTT assay; format: functional
[17] = Cytotoxicity in HEK293 cells assessed as growth inhibition measured after 48 hrs by MTT assay; format: toxicity, cell-based; conditions: human
[18] = Cytotoxicity in human MDA-MB-231 cells assessed as growth inhibition measured after 48 hrs by MTT assay; format: functional; conditions: MDA-MB-231, 48 h
[19] = Cytotoxicity in human Caco2 cells assessed as growth inhibition measured after 48 hrs by MTT assay; format: functional; conditions: Caco-2, 48 h
[20] = target: T2, NAD-dependent protein deacetylase sirtuin-1; assay: Inhibition of human SIRT1 assessed as deacetylation activity preincubated with protein followed by addition of AMC-tagged Arg-His-Lys-Lys(Ac) (379 to 382 residues) as substrate measured after 45 mins in presence of NAD+ by fluorescence assay
[21] = Cytotoxicity in human U937 cells assessed as growth inhibition measured after 48 hrs by MTT assay; format: functional; conditions: U-937, 48 h
[22] = target: T2, NAD-dependent protein deacetylase sirtuin-1; assay: Inhibition of recombinant SIRT1 (unknown origin) assessed as deacetylation activity using acetylated p53 as substrate measured after 2 hrs by Fluor de Lys assay

SMILES: CC(C)=CCC[C@](C)(O[C@@H]1O[C@H](CO)[C@@H](O)[C@H](O)[C@H]1O)[C@H]1CC[C@]2(C)[C@@H]1[C@H](O)C[C@@H]1[C@@]3(C)CC[C@H](O)C(C)(C)[C@@H]3[C@@H](O)C[C@]12C
- Activity [4]: 28%

SMILES: CC(C)=CCC[C@](C)(O[C@@H]1O[C@H](CO[C@@H]2O[C@@H](CO)[C@H](O)[C@H]2O)[C@@H](O)[C@H](O)[C@H]1O)[C@H]1CC[C@]2(C)[C@@H]1[C@H](O)C[C@@H]1[C@@]3(C)CC[C@H](O[C@@H]4O[C@H](CO)[C@@H](O)[C@H](O)[C@H]4O[C@@H]4O[C@H](CO)[C@@H](O)[C@H](O)[C@H]4O)C(C)(C)[C@@H]3CC[C@]12C
- Activity [4]: 88%

SMILES: CN(C)CCCCC(=O)Nc1ccc(NC(=S)NC(=O)c2ccc(C(C)(C)C)cc2)cc1
- IC50 (Saccharomyces cerevisiae): 30 µM

SMILES: CC(C)=CCC[C@](C)(O[C@@H]1O[C@H](CO[C@@H]2OC[C@H](O)[C@H](O)[C@H]2O)[C@@H](O)[C@H](O)[C@H]1O)[C@H]1CC[C@]2(C)[C@@H]1[C@H](O)C[C@@H]1[C@@]3(C)CC[C@H](O[C@@H]4O[C@H](CO)[C@@H](O)[C@H](O)[C@H]4O[C@@H]4O[C@H](CO)[C@@H](O)[C@H](O)[C@H]4O)C(C)(C)[C@@H]3CC[C@]12C
- Activity [12]: 8 to 152%

SMILES: Cc1ccc(-c2nc3c(=O)n(C)c(=O)nc-3n(C)n2)cc1
- IC50 [13]: > 100 µM
- IC50 [14]: 0.11 µM

SMILES: Cn1ncnc2c(=O)n(C)c(=O)nc1-2
- IC50 [13]: 14.4 µM
- IC50 [14]: 0.87 µM

The next lines start with results.

- F [1]: 0.5%
- bioavailability [2]: 20%
- Fabs [3]: 70%
SMILES: Oc1ccc(/C=C/c2cc(O)cc(O)c2)cc1 [RESVERATROL]

- EC50 [5]: < 1 µM
SMILES: CCc1ccccc1-n1c(N)c(C(=O)NCC2CCCO2)c2nc3ccccc3nc21 (centres undefined)

- IC50 [6]: 34 µM
- Ki [7]: 5.3 µM
- IC50 [8]: 8.7 µM
- Ki [9]: 9.8 µM
SMILES: O=C(/C=C/c1ccc(O)c(O)c1)NC(Cc1c[nH]c2ccccc12)C(=O)O (centres undefined)

- IC50 [10]: 1.15 µM
SMILES: CC1=CCC(C(=O)/N=C2\CC=C(S(=O)(=O)O)c3cc(S(=O)(=O)O)cc(S(=O)(=O)O)c32)=C/C1=N/C(=O)C1=CC=C/C(=N\C(=O)/N=C2\C=CC=C(C(=O)/N=C3/CC(C(=O)/N=C4\CC=C(S(=O)(=O)O)c5cc(S(=O)(=O)O)cc(S(=O)(=O)O)c54)=CC=C3C)C2)C1

- IC50 [11]: > 100 µM
SMILES: NC(=O)c1cccc(Nc2ccccc2)c1

- IC50 [10]: 2.26 µM
- IC50 [15]: 0.093 µM
SMILES: Nc1cc(NC(=O)Nc2cccc(C(=O)Nc3cccc(C(=O)Nc4ccc(S(=O)(=O)O)c5cc(S(=O)(=O)O)cc(S(=O)(=O)O)c45)c3)c2)cc(C(=O)Nc2cccc(C(=O)Nc3ccc(S(=O)(=O)O)c4cc(S(=O)(=O)O)cc(S(=O)(=O)O)c34)c2)c1

- IC50 [20]: 32 µM
SMILES: Oc1ccccc1-c1nc2ccc(Cl)cn2c1NCc1ccc2c(c1)OCO2
- GI50 [16]: < 1 µM
- GI50 at 48 h [17]: < 1 µM
- GI50 [18]: < 1 µM
- GI50 [19]: < 1 µM
- GI50 [21]: < 1 µM

- IC50 [13]: > 100 µM
- IC50 [14]: 0.11 µM
SMILES: CCCCc1nc2c(=O)n(C)c(=O)nc-2n(C)n1

- IC50 [22]: 3.1 µM
SMILES: Cc1ccc2[nH]c3c(c2c1)CCCC3C(=O)O (centres undefined)
